Test system: not listed separately
Test: Activation of AMPK in human HepG2 cells incubated for 2 hrs
Assay type: cell-based
Conditions: HepG2, 2 h

EC50 [µM] | Compound
0.029 | N#Cc1ccc(CN2CC[C@H](NC(=O)c3ccc(C(=O)N4CCC(C(=O)c5ccc(-n6cccn6)cc5)CC4)nc3)[C@@H](F)C2)cc1
0.021 | COc1ccc(C(=O)C2CCN(C(=O)c3ccc(C(=O)N(C)C4CCN(Cc5ccc(C#N)cc5)CC4)cn3)CC2)cc1
0.032 | COc1ccc(C(=O)C2CCN(C(=O)c3ccc(C(=O)NC4CCN(Cc5ccc(C#N)cc5)CC4(C)C)cn3)CC2)cc1 (stereo unspecified)
0.014 | COc1ccc(C(=O)C2CCN(C(=O)c3cc(C)c(C(=O)NC4CCN(Cc5ccc(OC)c(F)c5)CC4)cn3)CC2)cc1
0.022 | COc1ccc(C(=O)C2CCN(C(=O)c3ccc(C(=O)N[C@@H]4CCN(Cc5ccc(C#N)cc5)C[C@@H]4C)cn3)CC2)cc1
0.017 | COc1ccc(C(=O)C2CCN(C(=O)c3ccc(C(=O)N[C@@H]4CCN(Cc5ccc(C#N)cc5)C[C@@H]4C(F)(F)F)cn3)CC2)cc1
0.464 | COc1ccc(C(=O)C2CCN(C(=O)c3ccc(C(=O)N[C@H]4CCN(Cc5ccc(C#N)cc5)[C@H](C(F)(F)F)C4)cn3)CC2)cc1
0.022 | COc1ccc(C(=O)C2CCN(C(=O)c3cc(C)c(C(=O)NC4CCN(Cc5ccc(C#N)cc5)CC4)cn3)CC2)cc1
0.001 | COc1ccc(C(=O)C2CCN(C(=O)c3cc(F)c(C(=O)NC4CCN(Cc5ccc(C#N)cc5)CC4)cn3)CC2)cc1

Target: 5'-AMP-activated protein kinase
Test: Activation of AMPK in mouse C2C12 cells incubated for 2 hrs
Assay type: cell-based
Conditions: not given

EC50 [µM] | Compound
0.087 | N#Cc1ccc(CN2CC[C@H](NC(=O)c3ccc(C(=O)N4CCC(C(=O)c5ccc(-n6cccn6)cc5)CC4)nc3)[C@@H](F)C2)cc1
0.598 | COc1ccc(C(=O)C2CCN(C(=O)c3ccc(C(=O)NC4CCN(Cc5ccc(C#N)cc5)CC4(C)C)cn3)CC2)cc1 (stereo unspecified)
0.027 | COc1ccc(C(=O)C2CCN(C(=O)c3cc(C)c(C(=O)NC4CCN(Cc5ccc(OC)c(F)c5)CC4)cn3)CC2)cc1
0.082 | COc1ccc(C(=O)C2CCN(C(=O)c3ccc(C(=O)N[C@@H]4CCN(Cc5ccc(C#N)cc5)C[C@@H]4C)cn3)CC2)cc1
0.143 | COc1ccc(C(=O)C2CCN(C(=O)c3ccc(C(=O)N[C@@H]4CCN(Cc5ccc(C#N)cc5)C[C@@H]4C(F)(F)F)cn3)CC2)cc1
0.11 | COc1ccc(C(=O)C2CCN(C(=O)c3cc(C)c(C(=O)NC4CCN(Cc5ccc(C#N)cc5)CC4)cn3)CC2)cc1
0.009 | COc1ccc(C(=O)C2CCN(C(=O)c3cc(F)c(C(=O)NC4CCN(Cc5ccc(C#N)cc5)CC4)cn3)CC2)cc1

Test system: HepG2
Test: Inhibition of mitochondrial function in human HepG2 cells assessed as reduction in ATP production
Assay type: functional, cell-based
Conditions: not given

IC50 [µM] | Compound
0.887 | N#Cc1ccc(CN2CC[C@H](NC(=O)c3ccc(C(=O)N4CCC(C(=O)c5ccc(-n6cccn6)cc5)CC4)nc3)[C@@H](F)C2)cc1
0.028 | COc1ccc(C(=O)C2CCN(C(=O)c3ccc(C(=O)N(C)C4CCN(Cc5ccc(C#N)cc5)CC4)cn3)CC2)cc1
0.39 | COc1ccc(C(=O)C2CCN(C(=O)c3ccc(C(=O)NC4CCN(Cc5ccc(C#N)cc5)CC4(C)C)cn3)CC2)cc1 (stereo unspecified)
0.976 | COc1ccc(C(=O)C2CCN(C(=O)c3cc(C)c(C(=O)NC4CCN(Cc5ccc(OC)c(F)c5)CC4)cn3)CC2)cc1
0.941 | COc1ccc(C(=O)C2CCN(C(=O)c3ccc(C(=O)N[C@@H]4CCN(Cc5ccc(C#N)cc5)C[C@@H]4C)cn3)CC2)cc1
0.466 | COc1ccc(C(=O)C2CCN(C(=O)c3ccc(C(=O)N[C@@H]4CCN(Cc5ccc(C#N)cc5)C[C@@H]4C(F)(F)F)cn3)CC2)cc1
1.46 | COc1ccc(C(=O)C2CCN(C(=O)c3cc(C)c(C(=O)NC4CCN(Cc5ccc(C#N)cc5)CC4)cn3)CC2)cc1
0.031 | COc1ccc(C(=O)C2CCN(C(=O)c3cc(F)c(C(=O)NC4CCN(Cc5ccc(C#N)cc5)CC4)cn3)CC2)cc1

Target: hERG (KCNH2) (Homo sapiens, UniProt Q12809)
Test: Inhibition of hERG at 10 uM relative to control
Assay type: toxicity
Conditions: not given

hERG (KCNH2), sequence (Q12809 whole entry): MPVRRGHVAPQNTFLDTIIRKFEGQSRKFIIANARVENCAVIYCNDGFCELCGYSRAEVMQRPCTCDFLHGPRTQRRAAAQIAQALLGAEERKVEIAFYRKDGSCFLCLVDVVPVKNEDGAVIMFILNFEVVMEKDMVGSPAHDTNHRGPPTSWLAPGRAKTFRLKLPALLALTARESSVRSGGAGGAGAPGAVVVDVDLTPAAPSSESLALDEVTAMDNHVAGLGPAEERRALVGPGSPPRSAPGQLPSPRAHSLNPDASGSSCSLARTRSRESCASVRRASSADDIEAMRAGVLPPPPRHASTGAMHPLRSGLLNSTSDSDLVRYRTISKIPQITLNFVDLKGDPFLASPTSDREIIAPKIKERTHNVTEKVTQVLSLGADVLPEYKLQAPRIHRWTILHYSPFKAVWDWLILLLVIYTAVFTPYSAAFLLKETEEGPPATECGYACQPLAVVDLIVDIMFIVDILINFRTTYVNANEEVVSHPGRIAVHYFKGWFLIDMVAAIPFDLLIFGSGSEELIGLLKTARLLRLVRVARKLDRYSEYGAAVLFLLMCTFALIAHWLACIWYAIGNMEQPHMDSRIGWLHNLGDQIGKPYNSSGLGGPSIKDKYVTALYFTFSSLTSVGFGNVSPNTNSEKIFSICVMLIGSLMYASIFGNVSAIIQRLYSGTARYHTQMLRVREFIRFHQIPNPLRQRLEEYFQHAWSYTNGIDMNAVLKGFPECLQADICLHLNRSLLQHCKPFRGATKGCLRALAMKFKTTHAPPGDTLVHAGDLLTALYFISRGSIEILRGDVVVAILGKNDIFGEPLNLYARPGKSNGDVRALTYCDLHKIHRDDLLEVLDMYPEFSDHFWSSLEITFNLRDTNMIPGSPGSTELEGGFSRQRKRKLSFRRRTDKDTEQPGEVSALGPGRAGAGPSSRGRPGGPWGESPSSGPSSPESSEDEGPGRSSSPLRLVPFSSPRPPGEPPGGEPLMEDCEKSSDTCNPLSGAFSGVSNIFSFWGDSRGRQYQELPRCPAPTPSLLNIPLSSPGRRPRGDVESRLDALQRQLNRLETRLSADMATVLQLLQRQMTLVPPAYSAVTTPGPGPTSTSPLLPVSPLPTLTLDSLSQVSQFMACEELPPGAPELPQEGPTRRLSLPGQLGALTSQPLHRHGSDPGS

Compound | inhibition at 10 µM [%]
N#Cc1ccc(CN2CC[C@H](NC(=O)c3ccc(C(=O)N4CCC(C(=O)c5ccc(-n6cccn6)cc5)CC4)nc3)[C@@H](F)C2)cc1 | 98.4
COc1ccc(C(=O)C2CCN(C(=O)c3cc(C)c(C(=O)NC4CCN(Cc5ccc(OC)c(F)c5)CC4)cn3)CC2)cc1 | 58.4
COc1ccc(C(=O)C2CCN(C(=O)c3ccc(C(=O)N[C@@H]4CCN(Cc5ccc(C#N)cc5)C[C@@H]4C)cn3)CC2)cc1 | 46.9
COc1ccc(C(=O)C2CCN(C(=O)c3cc(C)c(C(=O)NC4CCN(Cc5ccc(C#N)cc5)CC4)cn3)CC2)cc1 | 59.8

Target: T1, Cytochrome P450 3A4 (Homo sapiens, UniProt P08684)
Test: Inhibition of CYP3A4 (unknown origin)
Assay type: ADME
Conditions: not given

T1 sequence (P08684 whole entry): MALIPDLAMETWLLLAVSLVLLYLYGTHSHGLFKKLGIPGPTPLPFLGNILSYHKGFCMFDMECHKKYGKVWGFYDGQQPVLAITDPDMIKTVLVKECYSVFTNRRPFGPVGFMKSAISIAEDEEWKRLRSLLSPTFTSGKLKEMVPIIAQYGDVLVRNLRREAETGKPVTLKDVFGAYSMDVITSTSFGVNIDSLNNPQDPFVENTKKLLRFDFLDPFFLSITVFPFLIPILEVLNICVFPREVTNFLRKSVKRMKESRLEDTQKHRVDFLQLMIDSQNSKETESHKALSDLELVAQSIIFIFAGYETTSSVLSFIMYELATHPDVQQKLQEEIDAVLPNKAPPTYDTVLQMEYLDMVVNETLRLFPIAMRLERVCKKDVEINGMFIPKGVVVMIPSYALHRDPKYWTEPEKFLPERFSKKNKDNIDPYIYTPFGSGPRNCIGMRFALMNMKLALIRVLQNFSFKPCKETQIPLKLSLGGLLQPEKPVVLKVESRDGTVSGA

IC50 [µM] | Compound
10 | COc1ccc(C(=O)C2CCN(C(=O)c3ccc(C(=O)N[C@@H]4CCN(Cc5ccc(C#N)cc5)C[C@@H]4C)cn3)CC2)cc1
> 10 | COc1ccc(C(=O)C2CCN(C(=O)c3cc(C)c(C(=O)NC4CCN(Cc5ccc(C#N)cc5)CC4)cn3)CC2)cc1

Target: T1, Cytochrome P450 3A4
Test: Inhibition of CYP3A4 (unknown origin) in presence of NADPH
Assay type: ADME
Conditions: not given

IC50 [µM] | Compound
0.9 | COc1ccc(C(=O)C2CCN(C(=O)c3ccc(C(=O)N[C@@H]4CCN(Cc5ccc(C#N)cc5)C[C@@H]4C)cn3)CC2)cc1
> 10 | COc1ccc(C(=O)C2CCN(C(=O)c3cc(C)c(C(=O)NC4CCN(Cc5ccc(C#N)cc5)CC4)cn3)CC2)cc1

Test system: not listed separately
Test: Microsomal stability in rat liver microsome assessed as half life
Assay type: ADME
Conditions: liver microsomes

half-life [min] | Compound
105 | N#Cc1ccc(CN2CC[C@H](NC(=O)c3ccc(C(=O)N4CCC(C(=O)c5ccc(-n6cccn6)cc5)CC4)nc3)[C@@H](F)C2)cc1
54 | COc1ccc(C(=O)C2CCN(C(=O)c3cc(C)c(C(=O)NC4CCN(Cc5ccc(OC)c(F)c5)CC4)cn3)CC2)cc1
9 | COc1ccc(C(=O)C2CCN(C(=O)c3ccc(C(=O)N[C@@H]4CCN(Cc5ccc(C#N)cc5)C[C@@H]4C)cn3)CC2)cc1
42 | COc1ccc(C(=O)C2CCN(C(=O)c3cc(C)c(C(=O)NC4CCN(Cc5ccc(C#N)cc5)CC4)cn3)CC2)cc1

Test system: not listed separately
Test: Microsomal stability in human liver microsome assessed as half life
Assay type: ADME, microsomes
Conditions: liver microsomes

half-life [min] | Compound
67 | COc1ccc(C(=O)C2CCN(C(=O)c3cc(C)c(C(=O)NC4CCN(Cc5ccc(OC)c(F)c5)CC4)cn3)CC2)cc1
23 | COc1ccc(C(=O)C2CCN(C(=O)c3ccc(C(=O)N[C@@H]4CCN(Cc5ccc(C#N)cc5)C[C@@H]4C)cn3)CC2)cc1
103 | COc1ccc(C(=O)C2CCN(C(=O)c3cc(C)c(C(=O)NC4CCN(Cc5ccc(C#N)cc5)CC4)cn3)CC2)cc1

Same assay, conditions: microsomes

Stability | Compound
Stable | N#Cc1ccc(CN2CC[C@H](NC(=O)c3ccc(C(=O)N4CCC(C(=O)c5ccc(-n6cccn6)cc5)CC4)nc3)[C@@H](F)C2)cc1

Test system: not listed separately
Test: Clearance in rat
Assay type: ADME
Conditions: in vivo

clearance [mL/min/kg] | Compound
19 | N#Cc1ccc(CN2CC[C@H](NC(=O)c3ccc(C(=O)N4CCC(C(=O)c5ccc(-n6cccn6)cc5)CC4)nc3)[C@@H](F)C2)cc1
74 | COc1ccc(C(=O)C2CCN(C(=O)c3ccc(C(=O)N(C)C4CCN(Cc5ccc(C#N)cc5)CC4)cn3)CC2)cc1
40 | COc1ccc(C(=O)C2CCN(C(=O)c3ccc(C(=O)NC4CCN(Cc5ccc(C#N)cc5)CC4(C)C)cn3)CC2)cc1 (stereo unspecified)
33 | COc1ccc(C(=O)C2CCN(C(=O)c3cc(C)c(C(=O)NC4CCN(Cc5ccc(OC)c(F)c5)CC4)cn3)CC2)cc1
62 | COc1ccc(C(=O)C2CCN(C(=O)c3ccc(C(=O)N[C@@H]4CCN(Cc5ccc(C#N)cc5)C[C@@H]4C(F)(F)F)cn3)CC2)cc1
38 | COc1ccc(C(=O)C2CCN(C(=O)c3cc(C)c(C(=O)NC4CCN(Cc5ccc(C#N)cc5)CC4)cn3)CC2)cc1

Reference: ChEMBL document CHEMBL5375990, “Optimization of Pharmacokinetic and In Vitro Safety Profile of a Series of Pyridine Diamide Indirect AMPK Activators” (J Med Chem, 2023)
